Reference: ChEMBL document CHEMBL3425421, “Chromone derivatives from a sponge-derived strain of the fungus Corynespora cassiicola” (J Nat Prod, 2015)
Activity calls are given as the source filed them.

Assays:
HeLa = assay: Cytotoxicity against human HeLa cells by MTT assay; assay type: functional, cell-based
Bacillus subtilis = assay: Antibacterial activity against Bacillus subtilis assessed as absence of growth after 18 hrs by conventional broth dilution assay; assay type: functional, organism-based
[1] = target: T1, DNA topoisomerase (Bos taurus) (UniProt A0JN73); assay: Inhibition of calf thymus Topoisomerase 1 relaxation activity by plasmid relaxation assay
T1 sequence (whole entry): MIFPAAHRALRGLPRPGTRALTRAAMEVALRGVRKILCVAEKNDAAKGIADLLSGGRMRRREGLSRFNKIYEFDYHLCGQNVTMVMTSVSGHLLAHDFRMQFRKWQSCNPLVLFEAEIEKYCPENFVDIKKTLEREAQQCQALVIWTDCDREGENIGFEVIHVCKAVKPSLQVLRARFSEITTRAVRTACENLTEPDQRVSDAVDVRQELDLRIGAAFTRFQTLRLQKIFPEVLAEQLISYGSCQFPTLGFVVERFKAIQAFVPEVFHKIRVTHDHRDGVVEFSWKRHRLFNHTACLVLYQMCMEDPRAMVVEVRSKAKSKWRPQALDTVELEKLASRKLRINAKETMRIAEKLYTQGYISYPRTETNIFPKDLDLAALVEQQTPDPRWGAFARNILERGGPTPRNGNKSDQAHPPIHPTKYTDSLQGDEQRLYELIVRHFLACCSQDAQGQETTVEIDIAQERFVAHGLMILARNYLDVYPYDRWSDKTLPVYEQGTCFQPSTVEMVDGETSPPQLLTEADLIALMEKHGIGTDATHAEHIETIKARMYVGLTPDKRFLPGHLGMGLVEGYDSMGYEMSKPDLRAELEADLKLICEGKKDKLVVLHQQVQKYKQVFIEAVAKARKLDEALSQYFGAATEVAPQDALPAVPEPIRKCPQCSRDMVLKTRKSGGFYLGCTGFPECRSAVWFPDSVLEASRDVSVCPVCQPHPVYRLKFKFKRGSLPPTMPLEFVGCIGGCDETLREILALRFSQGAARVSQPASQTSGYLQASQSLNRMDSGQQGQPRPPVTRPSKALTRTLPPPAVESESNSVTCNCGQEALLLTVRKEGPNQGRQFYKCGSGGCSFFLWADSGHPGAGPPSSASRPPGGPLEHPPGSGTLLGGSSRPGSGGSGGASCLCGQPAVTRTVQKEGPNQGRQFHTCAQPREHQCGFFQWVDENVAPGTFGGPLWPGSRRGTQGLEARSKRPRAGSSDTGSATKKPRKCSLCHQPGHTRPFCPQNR

Amphibalanus amphitrite = assay: Antifouling activity against Balanus amphitrite Darwin; assay type: functional, organism-based
A549 = assay: Cytotoxicity against human A549 cells by MTT assay; assay type: functional, cell-based
[2] = tested on: Tetragenococcus halophilus; assay: Antibacterial activity against Tetragenococcus halophilus assessed as absence of growth after 18 hrs by conventional broth dilution assay; assay type: functional
Staphylococcus = assay: Antibacterial activity against Staphylococcus albus assessed as absence of growth after 18 hrs by conventional broth dilution assay; assay type: functional, organism-based
HL-60 = assay: Cytotoxicity against human HL60 cells by MTT assay; assay type: functional, cell-based
Staphylococcus aureus = assay: Antibacterial activity against Staphylococcus aureus assessed as absence of growth after 18 hrs by conventional broth dilution assay; assay type: functional, organism-based
Pseudomonas putida = assay: Antibacterial activity against Pseudomonas putida assessed as absence of growth after 18 hrs by conventional broth dilution assay; assay type: functional, organism-based
Bacillus cereus = assay: Antibacterial activity against Bacillus cereus assessed as absence of growth after 18 hrs by conventional broth dilution assay; assay type: functional, organism-based
[3] = target: Acetylcholinesterase (Electrophorus electricus) (UniProt O42275); assay: Inhibition of electric eel AChE using acetylthiocholine iodide as substrate by Ellman's method
Vibrio parahaemolyticus = assay: Antibacterial activity against Vibrio parahaemolyticus assessed as absence of growth after 18 hrs by conventional broth dilution assay; assay type: functional, organism-based
K562 = assay: Cytotoxicity against human K562 cells by MTT assay; assay type: functional, cell-based

Measured: inhibition

Sequence of Acetylcholinesterase (Electrophorus electricus) (O42275 24-633 limits assumed): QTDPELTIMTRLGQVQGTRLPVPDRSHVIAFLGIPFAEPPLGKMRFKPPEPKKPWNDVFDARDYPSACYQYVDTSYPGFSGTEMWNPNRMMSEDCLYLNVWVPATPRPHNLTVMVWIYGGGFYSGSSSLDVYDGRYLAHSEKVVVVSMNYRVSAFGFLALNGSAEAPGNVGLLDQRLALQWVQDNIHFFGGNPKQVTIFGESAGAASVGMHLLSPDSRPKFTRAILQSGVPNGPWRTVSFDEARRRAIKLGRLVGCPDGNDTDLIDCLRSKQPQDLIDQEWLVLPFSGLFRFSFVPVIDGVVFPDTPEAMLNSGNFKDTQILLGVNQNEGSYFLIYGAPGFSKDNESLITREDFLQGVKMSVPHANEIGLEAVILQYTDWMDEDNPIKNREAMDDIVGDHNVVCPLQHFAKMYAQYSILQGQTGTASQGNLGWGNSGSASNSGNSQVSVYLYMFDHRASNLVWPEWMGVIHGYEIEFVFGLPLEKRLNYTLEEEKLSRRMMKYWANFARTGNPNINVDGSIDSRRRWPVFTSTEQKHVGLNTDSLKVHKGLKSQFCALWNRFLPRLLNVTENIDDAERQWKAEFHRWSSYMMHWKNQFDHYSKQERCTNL

CCOC(=O)Cc1cc(O)cc2oc(C)cc(=O)c12
inactive: all assays above

CCOC(=O)Cc1cc(O)cc2c1C(=O)C[C@@H](C[C@H](C)O)O2
inactive: all assays above

Cc1cc(=O)c2c(CC(=O)OCC(C)C)cc(O)cc2o1
inactive: all assays above

C[C@H](O)C[C@H]1CC(=O)c2c(CC(=O)O)cc(O)cc2O1
inactive: all assays above

CC(C)COC(=O)Cc1cc(O)cc2c1C(=O)C[C@@H](C[C@H](C)O)O2
inactive: all assays above

CCOC(=O)Cc1cc(O)cc2oc(/C=C/C[C@H](C)O)cc(=O)c12
inactive: all assays above

COc1c(O)cc(CC(=O)O)c2c1O[C@@H](C[C@H](C)O)CC2=O
inactive: all assays above

COc1c(O)cc(CC(=O)O)c2c1O[C@H](C[C@H](C)O)CC2=O
inactive: all assays above

C[C@H](O)C[C@@H]1CC(=O)c2c(CC(=O)O)cc(O)cc2O1
inactive: all assays above

CC(=O)C[C@H]1CC(=O)c2c(CC(=O)O)cc(O)cc2O1
inactive: all assays above

CCOC(=O)Cc1cc(O)cc2c1C(=O)C[C@H](C[C@H](C)O)O2
inactive: all assays above

CC(C)COC(=O)Cc1cc(O)cc2c1C(=O)C[C@H](C[C@H](C)O)O2
inactive: all assays above
